Measured values: ChEMBL document CHEMBL1156700, “Metabolic stereoselectivity of cytochrome P450 3A4 towards deoxypodophyllotoxin: In silico predictions and experimental validation” (Eur J Med Chem, 2008)

Key:
Format in all cases: ADME
Cytochrome P450 3A4 [1] = biological target: T1, Cytochrome P450 3A4 (Homo sapiens, UniProt P08684); test: Activity of human recombinant CYP3A4 co-expressed in Escherichia coli with human p450 NADPH reductase assessed as conversion of deoxypodophyllotoxin to epipodophyllotoxin; conditions: recombinant enzyme
Cytochrome P450 3A4 [2] = biological target: T1, Cytochrome P450 3A4; test: Activity of human recombinant CYP3A4 assessed as conversion of testosterone to 6-beta-hydroxytestesterone at 25 uM after 60 mins in presence of 25 uM Miconazole; conditions: recombinant enzyme, 1 h
Cytochrome P450 3A4 [3] = biological target: T1, Cytochrome P450 3A4; test: Ratio of Vmax to Km for human recombinant CYP3A4; conditions: recombinant enzyme
Cytochrome P450 3A4 [4] = biological target: T1, Cytochrome P450 3A4; test: Activity of human recombinant CYP3A4 assessed as conversion of testosterone to 6-beta-hydroxytestesterone at 25 uM after 60 mins in presence of 25 uM epipodophyllotoxin; conditions: recombinant enzyme, 1 h

T1 sequence (P08684 whole entry): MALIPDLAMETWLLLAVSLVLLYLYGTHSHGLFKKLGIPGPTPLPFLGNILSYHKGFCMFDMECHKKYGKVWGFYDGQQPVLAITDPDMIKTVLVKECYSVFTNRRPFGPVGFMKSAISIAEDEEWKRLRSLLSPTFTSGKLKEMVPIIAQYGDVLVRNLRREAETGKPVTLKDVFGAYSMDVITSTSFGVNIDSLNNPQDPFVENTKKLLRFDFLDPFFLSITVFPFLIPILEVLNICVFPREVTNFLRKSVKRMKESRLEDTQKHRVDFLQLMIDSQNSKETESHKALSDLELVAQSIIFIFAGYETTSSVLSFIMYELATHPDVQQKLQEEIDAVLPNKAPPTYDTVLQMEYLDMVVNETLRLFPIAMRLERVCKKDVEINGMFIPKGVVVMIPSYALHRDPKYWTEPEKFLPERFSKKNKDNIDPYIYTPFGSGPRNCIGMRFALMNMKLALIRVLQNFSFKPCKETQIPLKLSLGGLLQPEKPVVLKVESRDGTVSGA

For `C[C@]12CC[C@H]3[C@@H](CCC4=CC(=O)CC[C@@]43C)[C@@H]1CC[C@@H]2O` [TESTOSTERONE], the Km (Cytochrome P450 3A4 [1]) was 20.5 µM, the Vmax (Cytochrome P450 3A4 [1]) was 30.3 nmol/min and the “inhibition (INH)” value (Cytochrome P450 3A4 [2]) was 4.38%. For the same compound, the Vmax/Km (Cytochrome P450 3A4 [3]) was 2.5e+06 M⁻¹ s⁻¹ and the “inhibition (INH)” value (Cytochrome P450 3A4 [4]) was 11.46%.
